Reference: patent US9605078B2, “Pictet-Spengler ligation for protein chemical modification” (THE REGENTS OF THE UNIVERSITY OF CALIFORNIA, priority 2012, dated 2017)

Assay: Small molecule hydrolysis of model oxime and oxacarboline, followed by liquid chromatography
Format: physicochemical
Conditions: 1 μM, buffered solutions at pH 4.5 or 5.0, room temperature, over two days
Description: Small molecule hydrolysis: Hydrolysis solutions contained 1 μM 5a or 5b, 25 μM phenylalanine as an internal standard, and 5 mM sodium acetate at the appropriate pH. The solutions were incubated at room temperature and 50 μL aliquots were repeatedly analyzed by liquid chromatography on an Agilent 1200 instrument using an Agilent Poroshell 120 EC-C18 reverse phase column (4.6×50 mm) with a solvent flow rate of 0.4 mL/min. The following gradient was employed (time (min), % MeCN in H2O with 0.1% TFA): 0, 5; 10, 95; 12, 95; 14, 5; 19, 5. The time of the first injection for each solution was assigned as t=0. Integrals of the absorption peaks for 5a and 5b at 440 nm were normalized against the phenylalanine peak for each injection.

| hydrolysis of conjugate (liquid chromatography) | conjugate remained intact (liquid chromatography) | Structure (SMILES) |
| --- | --- | --- |
| majority of oxime 5a hydrolyzed |  | O=C(NCCC=NOCc1ccccc1)c1ccc(-c2c3ccc(=O)cc-3oc3cc(O)ccc23)c(C(=O)O)c1 (racemic) [Compound 5a, 5-((3-((Benzyloxy)imino)propyl)carbamoyl)-2-(6-hydroxy-3-oxo-3H-xanthen-9-yl)benzoic acid] |
|  | over 90% | CN1OCc2c(c3ccccc3n2CCC(=O)O)C1CCNC(=O)c1ccc(-c2c3ccc(=O)cc-3oc3cc(O)ccc23)c(C(=O)O)c1 (centres unmarked) [Compound 5b, 5-((2-(5-(2-Carboxyethyl)-2-methyl-1,2,4,5-tetrahydro-[1,2]oxazino [5,4-b]indol-1-yl)ethyl)carbamoyl)-2-(6-hydroxy-3-oxo-3H-xanthen-9-yl)benzoic acid] |
